Literature values in patent publication US9573873B2, “Catalytic method for dibenzocycloheptane synthesis and allocolchicinoid synthesis” (UNIVERSITY OF WINDSOR, priority 2014, dated 2017).

Conditions: Phase 2 clinical testing; background statement

In the case of `COc1cc2c(c(OC)c1OC)-c1ccc(OP(=O)(O)O)cc1[C@@H](NC(C)=O)CC2` [ZD 6126, N-Acetylcolchicinol dihydrogen phosphate], the cardiotoxicity is given as “failed in Phase 2 clinical testing because of this cardiotoxicity”.
